Data set [1] is described as follows: Cytotoxicity against human Huh7 cells at 0.1 to 2 uM. In kind it is cell-based. The conditions noted are these: huh-7, 2 µM.
Data set [2] has as its system Hepatitis C virus. The data set can be described thus: Inhibition of hepatitis C virus internal ribosome entry site-mediated translation in human Huh7 cells preincubated for 4 hrs in presence of fetal calf serum by bicistronic luciferase reporter gene assay. In kind it is functional, organism-based. The conditions noted are these: Hepacivirus hominis; Huh-7.
Data set [3] has as its system Hepatitis C virus. The data set can be described thus: Inhibition of hepatitis C virus internal ribosome entry site-mediated translation in human Huh7 cells at 2 uM preincubated for 4 hrs in presence of fetal calf serum by bicistronic luciferase reporter gene assay. In kind it is functional, Hepacivirus hominis. The conditions noted are these: Huh-7. For orientation: In a reporter assay the amount or activity of a reporter protein is the signal.

In data set [4] the test system is Hepatitis C virus. The data set can be described thus: Inhibition of hepatitis C virus internal ribosome entry site-mediated translation in human Huh7 cells at 1 uM preincubated for 4 hrs in presence of fetal calf serum by bicistronic luciferase reporter gene assay. In kind it is functional, Hepacivirus hominis. The note with it: Huh-7.

Calls of active or inactive are those of the source. The rule behind the calls is not given here.

Experimental findings from ChEMBL document CHEMBL1155820, “Lipid-conjugated oligonucleotides via "click chemistry" efficiently inhibit hepatitis C virus translation” (J Med Chem, 2008) are described below.

As a reminder, the inhibition is the drop in the measured response relative to a control, in per cent.

As for `CCCCCCCCCCCCCCCCCCOCC1=CN(C[C@H]2O[C@@H](n3cc(C)c(=O)[nH]c3=O)C[C@@H]2OP(=O)(O)OC[C@H]2O[C@@H](n3cnc4c(N)ncnc43)[C@H](OC)[C@@H]2OP(=O)(O)OC[C@H]2O[C@@H](n3ccc(N)nc3=O)[C@H](OC)[C@@H]2OP(=O)(O)OC[C@H]2O[C@@H](n3ccc(N)nc3=O)[C@H](OC)[C@@H]2OP(=O)(O)OC[C@H]2O[C@@H](n3ccc(N)nc3=O)[C@H](OC)[C@@H]2OP(=O)(O)OC[C@H]2O[C@@H](n3cnc4c(N)ncnc43)[C@H](OC)[C@@H]2OP(=O)(O)OP(=O)(O)OC[C@H]2O[C@@H](n3cnc4c(N)ncnc43)[C@H](OC)[C@@H]2OP(=O)(O)OC[C@H]2O[C@@H](n3ccc(N)nc3=O)[C@H](OC)[C@@H]2OP(=O)(O)OC[C@H]2O[C@@H](n3cnc4c(N)ncnc43)[C@H](OC)[C@@H]2OP(=O)(O)OC[C@H]2O[C@@H](n3ccc(N)nc3=O)[C@H](OC)[C@@H]2OP(=O)(O)OC[C@H]2O[C@@H](n3ccc(=O)[nH]c3=O)[C@H](OC)[C@@H]2OP(=O)(O)OC[C@H]2O[C@@H](n3cnc4c(N)ncnc43)[C@H](OC)[C@@H]2OP(=O)(O)OC[C@H]2O[C@@H](n3ccc(N)nc3=O)[C@H](OC)[C@@H]2OP(=O)(O)OC[C@H]2O[C@@H](n3ccc(=O)[nH]c3=O)[C@H](OC)[C@@H]2OP(=O)(O)OC[C@H]2O[C@@H](n3ccc(N)nc3=O)[C@H](OC)[C@@H]2OP(=O)(O)OC[C@H]2O[C@@H](n3cnc4c(=O)[nH]c(N)nc43)[C@H](OC)[C@@H]2OP(=O)(O)OC[C@H]2O[C@@H](n3cnc4c(=O)[nH]c(N)nc43)[C@H](OC)[C@@H]2OP(=O)(O)OC[C@H]2O[C@@H](n3ccc(N)nc3=O)[C@H](OC)[C@@H]2OP(=O)(O)O)NN1`, the Activity result was “Non-toxic” in data set [1] and “Dose-dependent effect” with Hepatitis C virus [2]. The inhibition at 2 µM in the data set with Hepatitis C virus [3] was 50%.

Regarding `CO[C@@H]1[C@H](OP(=O)(O)O)[C@@H](COP(=O)(O)O[C@H]2[C@@H](OC)[C@H](n3cnc4c(=O)[nH]c(N)nc43)O[C@@H]2COP(=O)(O)O[C@H]2[C@@H](OC)[C@H](n3cnc4c(=O)[nH]c(N)nc43)O[C@@H]2COP(=O)(O)O[C@H]2[C@@H](OC)[C@H](n3ccc(N)nc3=O)O[C@@H]2COP(=O)(O)O[C@H]2[C@@H](OC)[C@H](n3ccc(=O)[nH]c3=O)O[C@@H]2COP(=O)(O)O[C@H]2[C@@H](OC)[C@H](n3ccc(N)nc3=O)O[C@@H]2COP(=O)(O)O[C@H]2[C@@H](OC)[C@H](n3cnc4c(N)ncnc43)O[C@@H]2COP(=O)(O)O[C@H]2[C@@H](OC)[C@H](n3ccc(=O)[nH]c3=O)O[C@@H]2COP(=O)(O)O[C@H]2[C@@H](OC)[C@H](n3ccc(N)nc3=O)O[C@@H]2COP(=O)(O)O[C@H]2[C@@H](OC)[C@H](n3cnc4c(N)ncnc43)O[C@@H]2COP(=O)(O)O[C@H]2[C@@H](OC)[C@H](n3ccc(N)nc3=O)O[C@@H]2COP(=O)(O)O[C@H]2[C@@H](OC)[C@H](n3cnc4c(N)ncnc43)O[C@@H]2COP(=O)(O)OP(=O)(O)O[C@H]2[C@@H](OC)[C@H](n3cnc4c(N)ncnc43)O[C@@H]2COP(=O)(O)O[C@H]2[C@@H](OC)[C@H](n3ccc(N)nc3=O)O[C@@H]2COP(=O)(O)O[C@H]2[C@@H](OC)[C@H](n3ccc(N)nc3=O)O[C@@H]2COP(=O)(O)O[C@H]2[C@@H](OC)[C@H](n3ccc(N)nc3=O)O[C@@H]2COP(=O)(O)O[C@H]2[C@@H](OC)[C@H](n3cnc4c(N)ncnc43)O[C@@H]2COP(=O)(O)O)O[C@H]1n1ccc(N)nc1=O`, the outcome in the data set on Hepatitis C virus [2] was inactive.

With `CO[C@@H]1[C@H](OP(=O)(O)O)[C@@H](COP(=O)(O)O[C@H]2[C@@H](OC)[C@H](n3cnc4c(=O)[nH]c(N)nc43)O[C@@H]2COP(=O)(O)O[C@H]2[C@@H](OC)[C@H](n3cnc4c(=O)[nH]c(N)nc43)O[C@@H]2COP(=O)(O)O[C@H]2[C@@H](OC)[C@H](n3ccc(N)nc3=O)O[C@@H]2COP(=O)(O)O[C@H]2[C@@H](OC)[C@H](n3ccc(=O)[nH]c3=O)O[C@@H]2COP(=O)(O)O[C@H]2[C@@H](OC)[C@H](n3ccc(N)nc3=O)O[C@@H]2COP(=O)(O)O[C@H]2[C@@H](OC)[C@H](n3cnc4c(N)ncnc43)O[C@@H]2COP(=O)(O)O[C@H]2[C@@H](OC)[C@H](n3ccc(=O)[nH]c3=O)O[C@@H]2COP(=O)(O)O[C@H]2[C@@H](OC)[C@H](n3ccc(N)nc3=O)O[C@@H]2COP(=O)(O)O[C@H]2[C@@H](OC)[C@H](n3cnc4c(N)ncnc43)O[C@@H]2COP(=O)(O)O[C@H]2[C@@H](OC)[C@H](n3ccc(N)nc3=O)O[C@@H]2COP(=O)(O)O[C@H]2[C@@H](OC)[C@H](n3cnc4c(N)ncnc43)O[C@@H]2COP(=O)(O)OP(=O)(O)O[C@H]2[C@@H](OC)[C@H](n3cnc4c(N)ncnc43)O[C@@H]2COP(=O)(O)O[C@H]2[C@@H](OC)[C@H](n3ccc(N)nc3=O)O[C@@H]2COP(=O)(O)O[C@H]2[C@@H](OC)[C@H](n3ccc(N)nc3=O)O[C@@H]2COP(=O)(O)O[C@H]2[C@@H](OC)[C@H](n3ccc(N)nc3=O)O[C@@H]2COP(=O)(O)O[C@H]2[C@@H](OC)[C@H](n3cnc4c(N)ncnc43)O[C@@H]2COP(=O)(O)O[C@H]2C[C@H](n3cc(C)c(=O)[nH]c3=O)O[C@@H]2CN2C=C(CO[C@H]3CC[C@@]4(C)C(=CC[C@H]5[C@@H]6CC[C@H]([C@H](C)CCCC(C)C)[C@@]6(C)CC[C@@H]54)C3)NN2)O[C@H]1n1ccc(N)nc1=O`, the Activity entry is “Non-toxic” in data set [1] and “Dose-dependent effect” with Hepatitis C virus [2]. The inhibition at 1 µM in the data set on Hepatitis C virus [4] worked out at 50%.
